Here are results for 7 molecules from patent publication US20100009970A1, “COMPOSITIONS AND METHODS FOR TREATMENT OF VIRAL DISEASES” (Combinatorx (Singapore) Pte. Ltd., priority 2008, published 2010).

Data set [1] relates to Huh7 cells expressing a subgenomic RNA replicon of Con1 (genotype 1b) sequence origin.
The test system is the same in data set [2]. The data set can be described thus: microbe, parasite or virus in culture. The note with it: Hepatitis C virus.
The next data set can be described thus: in vitro. The note with it: human.
The mark [3] stands for this setting: GETYPE1B, Huh-7, 72 h, read-out: Max Effect @CC30 (inhibition).
Setting [4] is: Huh-7, 48 h, read-out: Max Effect.
[5] abbreviates: Huh-7, read-out: IC50 (uM) [SG].
Setting [6] is: Huh-7, read-out: Max Effect@CC30 (inhibition).

SMILES strings stand for the structures. “And” between values parts separate entries of the source, which are not always exact repeats. Equal entries are not always repeated. Structures can show the parent of a compound that is named as a salt. Where two headings read alike, the source gives them in different places. Bounds are passed on as bounds.

On to `CN(C)[C@H]1CC[C@@H](c2ccc(Cl)c(Cl)c2)c2ccc(NS(C)(=O)=O)cc21` [Dimethyl Sertraline Reverse Sulfonamide, N-((5S,8S)-5-(3,4-dichlorophenyl)-8-(dimethylamino)-5,6,7,8-tetrahydronaphthalen-2-yl)methanesulfonamide], for which, in data set [1], the “Synergy Score” value came out at 1.22. The Emax in data set [2] (setting [3]) amounted to 70%; in data set [2] (setting [4]), 44%; in data set [2] (setting [6]), 70%. For the same molecule, the IC50 was determined as 3.45 µM in data set [2] (Huh-7, 72 h) and 3.45 µM in data set [2] (setting [5]). Further, the figures for the CC50 in “in vitro” (CC50), in “in vitro” (CC50 (uM)) and in the data set “in vitro” (CC50 (uM) [SG]) were more than 13.4 µM, 16.5 µM and 16.5 µM, respectively.

For the molecule `COC1CC[C@@H](c2ccc(Cl)c(Cl)c2)c2ccccc21` (stereo partly drawn) [Methoxy 4S-Sertraline], in data set [1], half-maximal inhibition (IC50) was put at 26.4 µM; the IC90 was 46.1 µM and 46.9 µM; the “Max Effect@CC30 (inhibition)” value is 93.98% and 47.76%. Moreover, the concentration for half-maximal inhibition (IC50) in data set [2] (Huh-7) was 22.7 µM. The CC50 in “in vitro” (CC50 (uM)) was more than 50 µM.

As to `CN(C)[C@H]1CC[C@@H](c2ccc(Cl)c(Cl)c2)c2ccccc21` [N,N-Dimethyl Sertraline, (1S,4S)-4-(3,4-dichlorophenyl)-N,N-dimethyl-1,2,3,4-tetrahydronaphthalen-1-amine], the “Synergy Score” value in data set [1] stood at 0.89. Also, the “TI (CC50/IC50)” value in data set [1] is on record as more than 1.727. The Emax in data set [2] (setting [3]) was 99%; in data set [2] (setting [4]), 70%; in data set [2] (setting [6]), 99%. Further, the IC90 in data set [2] (Huh-7) was 18.1 ± 2.77 µM; in data set [2] (Huh-7, 72 h) it was 17.1 ± 2.93 µM. In addition, the IC50 was found to be 7.77 µM in data set [2] (Huh-7, 48 h); 5.22 ± 2.2 µM in data set [2] (Huh-7, 72 h); 6.07 ± 2.2 µM in data set [2] (setting [5]). Also, the CC50 in the data set “in vitro” (CC50) was more than 13.4 µM; in the data set “in vitro” (CC50 (uM)), 72.2 µM; in the data set “in vitro” (CC50 (uM) [SG]), 64.7 ± 10.6 µM.

Consider `CN[C@H]1CC[C@@H](c2ccc(Cl)c(Cl)c2)c2ccc(NS(=O)(=O)C3CC3)cc21` [N-((5S,8S)-5-(3,4-dichlorophenyl)-8-(methylamino)-5,6,7,8-tetrahydronaphthalen-2-yl)cyclopropanesulfonamide], for which the “Max Effect@CC30 (inhibition)” value in data set [1] turned out to be 56.82%. Moreover, the IC50 in data set [2] (Huh-7) came to 5.63 µM; in data set [2] (setting [5]), 5.62 µM. In addition, the 90% effect level in data set [2] (Huh-7) (IC90) was put at 10.7 µM. Also, in data set [2] (setting [6]), the Emax was determined as 58.8%. Besides, the CC50 in “in vitro” (CC50 (uM)) and in “in vitro” (CC50 (uM) [SG]) was 7.45 µM throughout.

In the case of `CN[C@H]1CC[C@@H](c2ccc(Cl)c(Cl)c2)c2ccc(CNS(C)(=O)=O)cc21` [N-(((5S,8S)-5-(3,4-dichlorophenyl)-8-(methylamino)-5,6,7,8-tetrahydronaphthalen-2-yl)methyl)methanesulfonamide], the “Synergy Score” value in data set [1] is recorded as 0.55. Further, in data set [1], the “TI (CC50/IC50)” value is listed as 1.761. Besides, the Emax in data set [2] (setting [3]) was 59.7 ± 3.5%; in data set [2] (setting [4]), 100%; in data set [2] (setting [6]), 59.7 ± 3.5%. The IC50 in data set [2] (Huh-7, 48 h) came to 5.97 µM; in data set [2] (Huh-7, 72 h), 3.28 ± 1.5 µM; in data set [2] (setting [5]), 3.28 ± 1.5 µM. Also, the CC50 in “in vitro” (CC50) was found to be 10.5 µM; in “in vitro” (CC50 (uM)) it was 11.2 ± 0.3 µM; in “in vitro” (CC50 (uM) [SG]) it was 11.2 ± 0.3 µM.

For the molecule `CN[C@H]1CC[C@@H](c2ccc(Cl)c(Cl)c2)c2ccccc21` [Sertraline (e.g., hydrochloride), Sertraline, reference compound], in data set [1], the “Synergy Score” value is recorded as 2.76. Further, in data set [2] (setting [4]), the Emax is 99%. Besides, the CC50 at 48 h in the data set “in vitro” (CC50) was 8.83 µM.

As for `CN[C@H]1CC[C@@H](c2ccc(Cl)c(Cl)c2)c2ccc(CO)cc21` [Sertraline A-Ring Ethanol, ((5S,8S)-5-(3,4-dichlorophenyl)-8-(methylamino)-5,6,7,8-tetrahydronaphthalen-2-yl)methanol], the “Synergy Score” value in data set [1] is 1.46. Besides, the “TI (CC50/IC50)” value in data set [1] turned out to be 2.472. Moreover, the Emax in data set [2] (setting [3]) came to 92 ± 5.6%; in data set [2] (setting [4]), 97%; in data set [2] (setting [6]), 92 ± 5.6%. Further, the IC90 amounted to 11.3 ± 2.91 µM in data set [2] (Huh-7) and 11.3 ± 2.91 µM in data set [2] (Huh-7, 72 h). The IC50 in data set [2] (Huh-7, 48 h) was found to be 4.48 µM; in data set [2] (Huh-7, 72 h), 2.85 ± 1.21 µM; in data set [2] (setting [5]), 2.85 ± 1.21 µM. The CC50 in “in vitro” (CC50) worked out at 11.1 µM; in “in vitro” (CC50 (uM)), 14.2 ± 0.3 µM; in “in vitro” (CC50 (uM) [SG]), 14.2 ± 0.3 µM.

As a reminder, the IC50 is the concentration that gives 50% inhibition. The IC90 is the concentration at which the effect reaches the 90% level. Lower therefore signals greater potency.
